The record followed here is PMC8148468, “Shikimic acid protects skin cells from UV-induced senescence through activation of the NAD+-dependent deacetylase SIRT1” (Aging (Albany NY), 2021).

Common to all, as to type: cell-based, human
Data set [1] deals with HDF cells. Nature of the data set: Cell cycle analysis, PI staining flow cytometry. On the procedure:
Figure 4 (A) SRB and Trypan blue cell viability assays performed in cells treated with or without Shikimic acid (5, 10, 25 and 50 mM) for 24h. (B) Apoptosis detection using the Annexin V-FITC/PI double staining followed by flow cytometry in non-irradiated and non-treated cells, irradiated and non-treated cells and irradiated cells treated with Shikimic acid (10, 25 and 50 mM). (C) Representation and statistical analysis of the percentage of apoptotic cells in each of the conditions analyzed. (D) Cell cycle analysis using PI staining followed by flow cytometry. (E) Relative p16^INK4a mRNA levels monitored by qPCR in the indicated conditions. Student T-test, *p<0.05. (F) Immunofluorescence of γH2AX in non-irradiated and non-treated cells, irradiated and non-treated cells and irradiated cells treated with Shikimic acid (10, 25 and 50 mM). (G) Principal component analysis (PCA) on Savitzky–Golay second derivatized spectra in the fingerprint region (1800–950 cm−1) for non-irradiated cells (No UVB), irradiated non-treated cells (UVB), irradiated cells treated with Shikimic acid 25 mM (UVB SA) and irradiated cells treated with Shikimic acid 25 mM plus EX-527 1 μM (UVB SA+EX-527). Student T-test, *p<0.05, **p<0.01, ***p<0.001. (H) Beta-sheet to alpha-helix ratio obtained by curve-fitting analysis of the amide I band (1700-1600 cm-1).
Fluorescence-activated cell sorting (FACS) analyses of the cell cycle and apoptosis were carried out using, respectively, a Propidium Iodide Flow Cytometry Kit (Abcam, UK), and an Annexin V-FITC Apoptosis Staining/Detection Kit (Abcam, UK), following the manufacturer’s instructions.
Senescence induction by UVB irradiation For the non-irradiation control conditions, HDF were plated at a density of 6×10^4 cells/plate in 6-well
HDF were plated at a density of 6×10^4 cells/plate in 6- plates. After 24h, culture medium was removed and well plates. After 24h, culture medium was removed replaced by fresh cell culture medium containing the and replaced with fresh cell culture medium containing compounds at different concentrations. […]

Data set [2] concerns UVB-irradiated HDF cells. Nature of the data set: Apoptosis detection, Annexin V-FITC/PI flow cytometry. Particulars: UVB-irradiated cells exposed to SA 10, 25, 50 mM. Here is the method:
(§1) Figure 4 (A) SRB and Trypan blue cell viability assays performed in cells treated with or without Shikimic acid (5, 10, 25 and 50 mM) for 24h. (B) Apoptosis detection using the Annexin V-FITC/PI double staining followed by flow cytometry in non-irradiated and non-treated cells, irradiated and non-treated cells and irradiated cells treated with Shikimic acid (10, 25 and 50 mM). (C) Representation and statistical analysis of the percentage of apoptotic cells in each of the conditions analyzed. (D) Cell cycle analysis using PI staining followed by flow cytometry. (E) Relative p16^INK4a mRNA levels monitored by qPCR in the indicated conditions. Student T-test, *p<0.05. (F) Immunofluorescence of γH2AX in non-irradiated and non-treated cells, irradiated and non-treated cells and irradiated cells treated with Shikimic acid (10, 25 and 50 mM). […]
Fluorescence-activated cell sorting (FACS) analyses of the cell cycle and apoptosis were carried out using, respectively, a Propidium Iodide Flow Cytometry Kit (Abcam, UK), and an Annexin V-FITC Apoptosis Staining/Detection Kit (Abcam, UK), following the manufacturer’s instructions. […]

Data set [3] relates to HDF cells (misfolded proteins). Nature of the data set: FTIRM analysis, beta-sheet to alpha-helix ratio. Particulars: UVB-irradiated cells, SA 25 mM -/+ EX-527 1 μM. Here is the method: as §1
FTIRM measurements were performed at the MIRAS beamline of ALBA Synchrotron using the internal (Globar®) source. […] The structure content of the amide I peak (1710-1598 cm−1) was determined by band deconvolution using Gaussian band fitting profiles (Origin 7.0 software). The position and number of peaks, which were assigned to specific types of secondary structures, were determined using the second derivative of the spectra.

For data set [4], the system named is p21. Nature of the data set: p21 mRNA levels (qPCR). Particulars: UVB-irradiated HDF, SA treatment. Here is the method:
RNA was extracted from cell pellets using the Total RNA Purification Kit (Norgen, Canada), according to the manufacturer’s protocol. […] The primers and their respective sequences are listed in Supplementary Table 1. qPCR protocol included one step at 95° C for 30 s, 40 cycles at 95° C for 10s, and 60° C for 1min. The results were analyzed with Bio-Rad CFX Manager software. BACT was used as a housekeeping gene to normalize gene expression. page 6: Supplementary Figure 6. Quantification (n=3) of the percentage of cells in each cell cycle phase and poliploydies in (A) non-irradiated cells treated with Shikimic acid at the indicated doses and (B) UVB-irradiated cells treated with Shikimic acid at the indicated doses, following the senescence induction method described in Figure 2A. (C) Relative p21 mRNA levels (n=3) in UVB-irradiated cells treated with Shikimic acid at the indicated doses, following the senescence induction method described in Figure 2A. (D) Second (PC-2) and third (PC-3) principal components in the fingerprint region (1800–950 cm−1) from the samples mentioned in Figure 4G. Student T-test, *p<0.05, **p<0.01, ***p<0.001. www.aging-us.com 6 AGING (1 picture or pasted object on this page, not shown here)
In general terms: Quantitative PCR measures a nucleic acid by following its amplification.

The test system of data set [5] is H4K16ac (the target of SIRT1 and SIRT2). Nature of the data set: Sirtuin activity assay in HDF: H4K16ac levels (Western blot).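 Note: screen looked for decreased acetylation as a sign of sirtuin activation.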 Conditions: HDF treated 24h. On the procedure:
Figure 1 (A) Schematic representation of the compound testing for sirtuin activity evaluation in HDF. Cells were treated with or without the compounds for 24h and harvested for analysis. […] (C) Western Blot analysis and (D) quantification of H4K16ac and H3K9ac levels in cells treated with Resveratrol or Shikimic acid at the indicated concentrations. H4K16 and H3K9 levels were normalized to H4 and H3 levels respectively. Student T-test, *p<0.05, **p<0.01, ***p<0.001.
HDFs were plated in 100x20 mm2 cell culture plates and after 24h, fresh cell culture medium containing the compounds was added. After 24h, cells were detached with cell scrapers, harvested, and processed for qPCR or western blot.
Protein levels were analyzed as previously described. Cells were directly lysed in 1x Laemmli Buffer (Bio-Rad, USA), incubated at 95° C and centrifuged. Supernatant was subjected to SDS-polyacrylamide gel electrophoresis, and successive steps were performed as described. The list of antibodies used is included in Supplementary Table 2.
(In general: In western blotting, separated proteins are transferred to a membrane and probed.)

In the case of `O=C(O)C1=C[C@@H](O)[C@@H](O)[C@H](O)C1` [Shikimic acid], the “frequency of polyploidies” value in data set [1] (UVB irradiation) is listed as “did not alter the accumulation of DNA damage or the frequency of polyploidies”. The “cells in S-phase” value in data set [1] (UVB-irradiated HDF) is recorded as “progressive increase in the number of cells in S-phase”. Also, the “cell cycle” value in data set [1] (absence of UVB irradiation) is given as “did not alter the cell cycle”. The “early apoptosis (annexin V, text)” value in data set [2] was “very mild and mostly insignificant levels of early apoptosis”. Further, the “β-sheet/α-helix ratio (misfolded proteins)” value in data set [3] is on record as “inhibited these levels well below the ratio observed in control cells”. In addition, the “p21 mRNA levels” value in data set [4] is on record as “did not observe any clear effect”. Also, in data set [5], the “effect on H4K16ac levels” value is “induced a similar effect on both targets”.
